Reference: PubChem BioAssay (NCI)
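In this assay, cells in 96-well plates receive the compound at five concentrations for 48 hours. Endpoints are linearly interpolated between the surrounding concentrations. TGI is the concentration that stops growth completely.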

Assays:
Test in all cases: NCI tumour cell line growth inhibition, 48 h
[1] = system: A549 NSCLC
[2] = system: ACHN renal
[3] = system: M14 melanoma
[4] = system: DLD-1 colon
[5] = system: TK-10 renal
[6] = system: EKVX NSCLC
[7] = system: OVCAR-5 ovarian
[8] = system: HCT-15 colon
[9] = system: KM20L2 colon
[10] = system: OVCAR-3 ovarian
[11] = system: SF-295 CNS
[12] = system: UACC-62 melanoma
[13] = system: MALME-3M melanoma
[14] = system: DMS 114 small cell lung
[15] = system: OVCAR-8 ovarian
[16] = system: A498 renal
[17] = system: SNB-75 CNS
[18] = system: NCI-H23 lung
[19] = system: OVCAR-4 ovarian
[20] = system: HOP-62 NSCLC
[21] = system: COLO 205 colon
[22] = system: HOP-92 NSCLC
[23] = system: UACC-257 melanoma
[24] = system: CAKI-1 renal
[25] = system: NCI-H522 lung
[26] = system: RXF 393 renal
[27] = system: NCI-H226 lung
[28] = system: SK-MEL-2 melanoma
[29] = system: SF-539 CNS
[30] = system: HL-60(TB) leukemia
[31] = system: HCT-116 colon
[32] = system: RXF-631 renal
[33] = system: M19-MEL melanoma
[34] = system: MOLT-4 leukemia
[35] = system: LOX IMVI melanoma
[36] = system: SK-OV-3 ovarian
[37] = system: SW-620 colon
[38] = system: SK-MEL-28 melanoma
[39] = system: SN12C renal
[40] = system: HCC-2998 colon
[41] = system: SNB-19 CNS
[42] = system: IGROV1 ovarian
[43] = system: LXFL 529 NSCLC
[44] = system: RPMI-8226 leukemia
[45] = system: HT29 colon
[46] = system: 786-0 renal
[47] = system: SF-268 CNS
[48] = system: CCRF-CEM leukemia
[49] = system: HOP-18 NSCLC
[50] = system: NCI-H460 lung
[51] = system: KM12 colon
[52] = system: UO-31 renal
[53] = system: SK-MEL-5 melanoma
[54] = system: SR leukemia
[55] = system: DMS 273 small cell lung
[56] = system: U251 CNS
[57] = system: K-562 leukemia
[58] = system: SNB-78 CNS

Measured: TGI

CC(=O)C(CN(CC(C)C)CC(C)C)C(c1ccccc1)c1c(O)c2ccccc2oc1=O (stereo not given)
not listed: [48] | [49] | [50] | [51] | [52] | [53] | [54] | [55] | [56] | [57] | [58]
> 100 µM: all other assays above

CS(=O)(=O)c1ccc(-c2cc(-c3ccc(S(C)(=O)=O)cc3)[n+](-c3cc(-c4ccc(S(C)(=O)=O)cc4)c([O-])c(-c4ccc(S(C)(=O)=O)cc4)c3)c(-c3ccc(S(C)(=O)=O)cc3)c2)cc1
not listed: [6] | [16] | [22] | [30] | [36]
> 100 µM: all other assays above
